Measurements taken from patent US11807693B2 (priority 2014, dated 2023).
Read-outs that look alike come from different tables or passages of the source. Each block holds one compound with its values, some of them ahead of it. Starred links: 1 amine or outer side, 2 acyl side, 3 side chain; linkers in the order of their positions; H or OH if unused. Non-standard residues stand in square brackets, D forms with d. Residues, ends and D or L forms follow the SMILES beside them. *: point of attachment. dBip = N[C@H](Cc1ccc(-c2ccccc2)cc1)C(=O)O; Oic = O=C(O)[C@@H]1C[C@@H]2CCCC[C@@H]2N1; Phe(4-Cl) = N[C@@H](Cc1ccc(Cl)cc1)C(=O)O; Phe(4-I) = N[C@@H](Cc1ccc(I)cc1)C(=O)O; γGlu = O=C(O)[C@H](CCC(=O)[*:2])N[*:1]; 2Nal = N[C@@H](Cc1ccc2ccccc2c1)C(=O)O; d(β3hF) = N[C@@H](CC(=O)O)Cc1ccccc1; NMeR = CN[C@@H](CCCNC(=N)N)C(=O)O; Palmitoyl = CCCCCCCCCCCCCCCC(=O)*; Tridecanoyl = CCCCCCCCCCCCC(=O)*; hArg = N=C(N)NCCCC[C@H](N)C(=O)O; 3Pal = N[C@@H](Cc1cccnc1)C(=O)O; Cha = N[C@@H](CC1CCCCC1)C(=O)O; NMeL = CN[C@@H](CC(C)C)C(=O)O; αMeL = CC(C)C[C@](C)(N)C(=O)O; β3hP = O=C(O)C[C@@H]1CCCN1; Nle = CCCC[C@H](N)C(=O)O; Orn = NCCC[C@H](N)C(=O)O; Pra = C#CC[C@H](N)C(=O)O; AEEA = NCCOCCOCC(=O)O

Biological target: T1, rat APJ receptor (Rattus norvegicus, UniProt Q9JHG3)
T1 construct: expressed in transfected cells
T1 sequence (Q9JHG3 1-377): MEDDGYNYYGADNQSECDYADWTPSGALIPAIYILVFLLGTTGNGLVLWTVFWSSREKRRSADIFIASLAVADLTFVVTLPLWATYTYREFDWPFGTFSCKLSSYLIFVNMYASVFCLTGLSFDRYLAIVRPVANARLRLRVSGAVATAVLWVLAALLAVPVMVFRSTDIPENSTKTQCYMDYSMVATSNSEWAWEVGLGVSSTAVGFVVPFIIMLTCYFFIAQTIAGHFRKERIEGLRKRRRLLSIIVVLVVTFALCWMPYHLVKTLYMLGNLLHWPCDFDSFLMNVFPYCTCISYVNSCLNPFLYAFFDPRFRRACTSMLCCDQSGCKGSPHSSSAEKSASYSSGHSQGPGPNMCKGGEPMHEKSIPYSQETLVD
Test: [35S] GTPγS assay, rat APJ receptor
Format: biochemical
Procedure: The membranes were incubated with modified peptides in the assay buffer. […] Bound [^35S] GTPγS was separated from free radiolabel by filtration. The filter bound radioactivity was determined by liquid scintillation counting.

[1] = rat APJ receptor, read-out: EC50 Rat APJ Receptor
[2] = Table 16, read-out: EC50 Rat APJ Receptor

Compound: CCCCCCCCCC(=O)N[C@@H](CCC(=O)NCCOCCOCC(=O)NCCOCCOCC(=O)N[C@@H](CCC(N)=O)C(=O)N[C@@H](CCCNC(=N)N)C(=O)N1CCC[C@H]1C(=O)N(C)[C@@H](CCCNC(=N)N)C(=O)N[C@@H](CC(C)C)C(=O)N[C@@H](CO)C(=O)N[C@@H](Cc1c[nH]cn1)C(=O)N[C@@H](CCCCN)C(=O)NCC(=O)N1CCC[C@H]1C(=O)N[C@@H](CCCC)C(=O)N1CCC[C@H]1C(=O)N[C@@H](Cc1ccc(Cl)cc1)C(=O)O)C(=O)O [compound 494]
EC50 [1]: 0.147 nM

Compound: CCCCCCCCCCCCC(=O)N[C@@H](CCC(=O)NCCOCCOCC(=O)NCCOCCOCC(=O)N[C@@H](CCC(N)=O)C(=O)N[C@@H](CCCNC(=N)N)C(=O)N1CCC[C@H]1C(=O)N[C@@H](CCCCNC(=N)N)C(=O)N[C@@](C)(CC(C)C)C(=O)N[C@@H](CO)C(=O)N[C@@H](Cc1c[nH]cn1)C(=O)N[C@@H](CCCCN)C(=O)NCC(=O)N1CCC[C@H]1C(=O)N[C@@H](CCCC)C(=O)N1CCC[C@H]1C(=O)N[C@@H](Cc1ccc2ccccc2c1)C(=O)O)C(=O)O [compound 404] ({Tridecanoyl-γGlu-AEEA-AEEA}-QRP[hArg][αMeL]SHKGP[Nle]P[2Nal]-OH)
EC50 [2]: 0.361 nM

Compound: C#CC[C@H](NC(=O)[C@H](CC(C)C)NC(=O)[C@H](CCCNC(=N)N)N(C)C(=O)[C@@H]1CCCN1C(=O)[C@H](CCCNC(=N)N)NC(=O)[C@H](CCC(N)=O)NC(=O)COCCOCCNC(=O)COCCOCCNC(=O)CC[C@H](NC(=O)CCCCCCCCCCCC)C(=O)O)C(=O)N[C@@H](Cc1c[nH]cn1)C(=O)N[C@@H](CCCCN)C(=O)NCC(=O)N1CCC[C@H]1C(=O)N[C@@H](CCCC)C(=O)N1CCC[C@H]1C(=O)N[C@@H](Cc1ccc(Cl)cc1)C(=O)O [compound 450] ({Tridecanoyl-γGlu-AEEA-AEEA}-QRP[NMeR]L[Pra]HKGP[Nle]P[Phe(4-Cl)]-OH)
EC50 [2]: 0.313 nM

The next lines start with the values.

EC50 [1]: 14.9 nM
Compound: CCCCCCCCCCCCCCCC(=O)N[C@@H](CCC(=O)NCCOCCOCC(=O)NCCOCCOCC(=O)N[C@H](CCC(N)=O)C(=O)N[C@@H](CCCNC(=N)N)C(=O)N1CCC[C@H]1C(=O)N(C)[C@@H](CCCNC(=N)N)C(=O)N[C@@H](CC1CCCCC1)C(=O)N[C@@H](CO)C(=O)N[C@@H](Cc1c[nH]cn1)C(=O)N[C@@H](Cc1cccnc1)C(=O)NCC(=O)N1[C@H](C(=O)N[C@@H](CCCC)C(=O)N2CCC[C@H]2CC(=O)N[C@@H](CC(=O)O)Cc2ccccc2)C[C@@H]2CCCC[C@@H]21)C(=O)O [compound 620] ({Palmitoyl-γGlu-AEEA-AEEA}-[dQ]RP[NMeR][Cha]SH[3Pal]G[Oic][Nle][β3hP][d(β3hF)]-OH)

EC50 (read-out: EC50 Rat APJ Receptor): 0.486 nM
Compound: CCCC[C@H](NC(=O)[C@@H]1CCCN1C(=O)CNC(=O)[C@H](CCCCN)NC(=O)[C@H](Cc1c[nH]cn1)NC(=O)[C@H](CO)NC(=O)[C@H](CC1CCCCC1)NC(=O)[C@H](CCCCNC(=N)N)NC(=O)[C@@H]1CCCN1C(=O)[C@H](CCCNC(=N)N)NC(=O)[C@H](CCC(N)=O)NC(=O)[C@H](CCCCNC(=N)N)NC(=O)[C@H](CCCCNC(=N)N)NC(=O)[C@H](Cc1ccccc1)NC(=O)[C@H](CCCN)NC(C)=O)C(=O)N[C@@H](Cc1ccc(Cl)cc1)C(=O)O [compound 48] (Ac-[Orn]F[hArg][hArg]QRP[hArg][Cha]SHKGP[Nle][Phe(4-Cl)]-OH)

EC50 (aqueous stock, absence of DMSO, read-out: rAPJ EC50): 390 nM
Compound: {H2}[MerPr](10K mPEGacetamide)QRPRLSHKGPMPF{COOH} (N-terminal MerPr 10K mPEG acetamide; source: /note="N-term MerPr(10KmPEGacetamide)") [SEQ ID NO: 110, reference compound]

EC50 [1]: 14.8 nM
Compound: CCCCCCCCCCCCC(=O)N[C@@H](CCC(=O)NCCOCCOCC(=O)NCCOCCOCC(=O)N[C@@H](CCCCNC(=N)N)C(=O)N[C@@H](CCCC)C(=O)N[C@@H](CCC(N)=O)C(=O)N[C@@H](CCCCNC(=N)N)C(=O)N1CCC[C@H]1C(=O)N[C@H](CCCNC(=N)N)C(=O)N(C)[C@@H](CC(C)C)C(=O)N[C@@H](CO)C(=O)N[C@@H](C)C(=O)N[C@@H](CCCCN)C(=O)NCC(=O)N1[C@H](C(=O)N[C@@H](Cc2ccc(I)cc2)C(=O)N2CCC[C@H]2C(=O)N[C@H](Cc2ccc(-c3ccccc3)cc2)C(=O)O)C[C@@H]2CCCC[C@@H]21)C(=O)O [compound 327] ({Tridecanoyl-γGlu-AEEA-AEEA}-[hArg][Nle]Q[hArg]P[dR][NMeL]SAKG[Oic][Phe(4-I)]P[dBip]-OH)
